Source: ChEMBL document CHEMBL1201862, “PubChem BioAssay data set” (2004)
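Assay format: 96-well plates, 48-hour exposure. Abbreviation: GI50, concentration required for 50% inhibition of growth.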 The source made the active and inactive calls. Cut-off read from the data, not from the text of the source: active = GI50 up to about 1.1 µM and inactive = higher.

Columns and labels:
Assay in all cases: NCI anticancer screen, dose series, 48 h
CCRF-CEM = tested on: CCRF-CEM
LOX IMVI = tested on: LOX IMVI
OVCAR-4 = tested on: OVCAR-4
UACC-62 = tested on: UACC-62
UACC-257 = tested on: UACC-257
MOLT-4 = tested on: MOLT-4
COLO 205 = tested on: COLO 205
SNB-19 = tested on: SNB-19
HCT-116 = tested on: HCT-116
KM12 = tested on: KM12
HCT-15 = tested on: HCT-15
ACHN = tested on: ACHN
TK-10 = tested on: TK-10
SR = tested on: SR
SNB-78 = tested on: SNB-78
EKVX = tested on: EKVX
NCI/ADR-RES = tested on: NCI/ADR-RES
Hs-578T = tested on: Hs-578T
DU-145 = tested on: DU-145
BT-549 = tested on: BT-549

Measured: GI50

COC(=O)CC(=O)OC1C[C@@H]2CCC3C(C)(C)CCC[C@]3(C)C23CC[C@@]1(C)C3 (some centres undefined)
19.9 µM: HCT-15
inactive: CCRF-CEM > 100 µM | LOX IMVI 17.8 µM | OVCAR-4 16.9 µM | UACC-62 16.3 µM | UACC-257 19.1 µM | MOLT-4 53.8 µM | COLO 205 18.6 µM | SNB-19 17.4 µM | HCT-116 17.3 µM | KM12 18.5 µM | ACHN 17.5 µM | TK-10 19.1 µM | SR > 100 µM | SNB-78 19.6 µM

C=CSCCC(N)C(=O)O (centres undefined)
inactive: CCRF-CEM > 100 µM | LOX IMVI > 100 µM | OVCAR-4 > 100 µM | UACC-62 > 100 µM | UACC-257 > 100 µM | MOLT-4 > 100 µM | COLO 205 > 100 µM | SNB-19 > 100 µM | HCT-116 > 100 µM | KM12 > 100 µM | EKVX > 100 µM | ACHN > 100 µM | TK-10 > 100 µM | SR > 100 µM | SNB-78 > 100 µM
> 100 µM: HCT-15

Nc1nc(S)nc(C(=O)Nc2nccs2)c1-c1ccccc1
inactive: CCRF-CEM > 100 µM | LOX IMVI > 100 µM | OVCAR-4 > 100 µM | UACC-62 > 100 µM | UACC-257 > 100 µM | MOLT-4 > 100 µM | COLO 205 > 100 µM | SNB-19 > 100 µM | HCT-116 > 100 µM | KM12 > 100 µM | EKVX > 100 µM | ACHN > 100 µM | TK-10 > 100 µM | SR > 100 µM | SNB-78 > 100 µM
> 100 µM: HCT-15

CS(=O)(=O)OCCCOS(C)(=O)=O
inactive: CCRF-CEM > 100 µM | LOX IMVI > 100 µM | OVCAR-4 > 100 µM | UACC-62 > 100 µM | UACC-257 > 100 µM | MOLT-4 > 100 µM | COLO 205 > 100 µM | SNB-19 > 100 µM | HCT-116 > 100 µM | KM12 > 100 µM | EKVX > 100 µM | ACHN > 100 µM | TK-10 > 100 µM | SR > 100 µM | SNB-78 > 100 µM
> 100 µM: HCT-15

CC1=CC(=O)C(=O)C2=C1OC1(C2)C(C)CCC2C3(C)CCC(O)C(C)(C)C3CCC21C (centres undefined)
19.4 µM: HCT-15
inactive: CCRF-CEM 14 µM | LOX IMVI 16.7 µM | OVCAR-4 17.2 µM | UACC-62 15.8 µM | UACC-257 18.9 µM | MOLT-4 17.1 µM | COLO 205 16.3 µM | SNB-19 16.8 µM | HCT-116 15.3 µM | KM12 15.7 µM | ACHN 16.9 µM | TK-10 18.8 µM | SR 23.8 µM | SNB-78 22.4 µM

CCCCC(=O)OC[n+]1ccc2c(C)c3[nH]c4ccc(OC)cc4c3c(C)c2c1
0.166 µM: HCT-15
inactive: UACC-257 2.13 µM | EKVX 1.14 µM | TK-10 2.64 µM | SNB-78 1.18 µM
active: CCRF-CEM 0.0684 µM | LOX IMVI 0.271 µM | OVCAR-4 0.796 µM | UACC-62 0.979 µM | NCI/ADR-RES 0.234 µM | MOLT-4 0.0396 µM | COLO 205 0.267 µM | SNB-19 0.364 µM | HCT-116 0.0718 µM | KM12 0.412 µM | Hs-578T 1.07 µM | DU-145 0.76 µM | ACHN 0.0938 µM | SR 0.0506 µM

C=CC(=O)c1ccc2c(c1)OCCOCCOCCOCCOCCO2
inactive: CCRF-CEM > 27.5 µM | LOX IMVI 17.7 µM | OVCAR-4 20.3 µM | UACC-62 30.3 µM | UACC-257 19.1 µM | NCI/ADR-RES 25.3 µM | MOLT-4 38.1 µM | COLO 205 17.7 µM | SNB-19 > 100 µM | HCT-116 25.9 µM | KM12 > 100 µM | Hs-578T > 100 µM | DU-145 > 100 µM | EKVX 24 µM | ACHN 17.7 µM | TK-10 17 µM | SR > 100 µM | BT-549 19.9 µM | SNB-78 17.7 µM
21.6 µM: HCT-15

CCOC(=O)Cn1c(=O)[nH]c(=O)c2[nH]cnc21
inactive: CCRF-CEM > 100 µM | LOX IMVI > 100 µM | OVCAR-4 > 100 µM | UACC-62 > 100 µM | UACC-257 > 100 µM | MOLT-4 > 100 µM | COLO 205 > 100 µM | SNB-19 > 100 µM | HCT-116 > 100 µM | KM12 > 100 µM | EKVX > 100 µM | ACHN > 100 µM | TK-10 > 100 µM | SR > 100 µM | SNB-78 > 100 µM
> 100 µM: HCT-15

CCN(CC)Cc1c(/C=C\c2cc(OC)c(OC)c(OC)c2)ccc(OC)c1O
2.71 µM: HCT-15
inactive: CCRF-CEM 6.53 µM | LOX IMVI 6.24 µM | OVCAR-4 12.3 µM | UACC-62 2.43 µM | UACC-257 16.8 µM | NCI/ADR-RES 2.16 µM | MOLT-4 15.3 µM | COLO 205 2.45 µM | SNB-19 10.3 µM | HCT-116 3.33 µM | KM12 1.69 µM | Hs-578T 2.08 µM | DU-145 3.72 µM | EKVX 6.1 µM | ACHN 8.59 µM | TK-10 9.4 µM | BT-549 6.01 µM | SNB-78 4.17 µM

COc1cc2c(c(OC)c1OC)CCNC2C1=C(O)COC1=O (centres undefined)
> 100 µM: HCT-15
inactive: CCRF-CEM > 100 µM | LOX IMVI > 100 µM | OVCAR-4 > 100 µM | UACC-62 55.6 µM | UACC-257 > 100 µM | MOLT-4 > 100 µM | COLO 205 > 100 µM | SNB-19 > 100 µM | HCT-116 > 100 µM | KM12 > 100 µM | ACHN > 100 µM | TK-10 > 100 µM | SR > 100 µM | SNB-78 > 100 µM

COc1cc2c(oc(=O)c3c4oc([Si](C)(C)C)cc4cc(OC)c23)c2cccc(OCc3ccccc3)c12
> 70.5 µM: HCT-15
inactive: CCRF-CEM 48.3 µM | LOX IMVI 44 µM | OVCAR-4 33.1 µM | UACC-62 17.4 µM | UACC-257 47.6 µM | MOLT-4 > 71.9 µM | COLO 205 54.2 µM | SNB-19 23.8 µM | HCT-116 43.2 µM | KM12 > 64.3 µM | EKVX > 66.5 µM | ACHN 51.4 µM | TK-10 37.2 µM | SR 37.7 µM | SNB-78 17 µM

CS(=O)(=O)OCCN1CCN(C(=O)c2cccc3c(Nc4ccc(S(N)(=O)=O)cc4)c4ccccc4nc23)CC1
inactive: CCRF-CEM > 44.1 µM | LOX IMVI > 40.6 µM | OVCAR-4 > 100 µM | UACC-62 > 100 µM | UACC-257 > 66.7 µM | MOLT-4 > 100 µM | COLO 205 > 50.8 µM | SNB-19 > 49.8 µM | HCT-116 > 43.9 µM | KM12 > 100 µM | EKVX > 100 µM | ACHN > 100 µM | TK-10 > 100 µM | SR > 100 µM | SNB-78 > 100 µM
> 42.9 µM: HCT-15
